Assay results as given in article PMC2765816 (European journal of pharmacology, 2008).

Key:
adenosine A2B receptor = molecular target: T1, adenosine A2B receptor (Homo sapiens, UniProt P29275); settings: ref Hide et al., 1992; cited from earlier work
T1 sequence (P29275 1-332): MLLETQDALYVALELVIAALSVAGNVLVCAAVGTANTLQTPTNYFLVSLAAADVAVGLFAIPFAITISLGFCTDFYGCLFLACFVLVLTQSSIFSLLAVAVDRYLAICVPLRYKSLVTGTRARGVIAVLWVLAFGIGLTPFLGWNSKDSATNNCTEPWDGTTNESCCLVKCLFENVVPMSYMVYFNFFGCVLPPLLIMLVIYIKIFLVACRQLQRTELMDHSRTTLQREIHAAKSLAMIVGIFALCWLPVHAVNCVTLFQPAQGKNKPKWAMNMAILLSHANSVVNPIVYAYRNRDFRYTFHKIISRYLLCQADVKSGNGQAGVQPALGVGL

[1] = molecular target: adenosine A2A-CFP receptor (Homo sapiens, UniProt P29274); settings: 0.45 M; agonist 2 μM NECA
adenosine A2A-CFP receptor, sequence (P29274 1-363): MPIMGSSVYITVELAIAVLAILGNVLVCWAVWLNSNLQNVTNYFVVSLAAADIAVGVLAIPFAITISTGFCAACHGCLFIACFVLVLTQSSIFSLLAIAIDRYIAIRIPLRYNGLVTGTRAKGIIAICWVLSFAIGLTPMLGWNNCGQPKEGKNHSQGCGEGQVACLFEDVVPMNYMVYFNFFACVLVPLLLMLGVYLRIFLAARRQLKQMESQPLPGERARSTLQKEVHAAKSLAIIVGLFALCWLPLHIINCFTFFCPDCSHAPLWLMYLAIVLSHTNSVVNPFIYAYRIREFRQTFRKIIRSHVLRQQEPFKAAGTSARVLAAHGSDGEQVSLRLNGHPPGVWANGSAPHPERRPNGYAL

Structure (SMILES)	activity at the adenosine A2B receptor (adenosine A2B receptor)	effect on agonist-induced internalization of A2A-CFP [1]
CCNC(=O)[C@H]1O[C@@H](n2cnc3c(N)nc(NCCc4ccc(CCC(=O)NCCN)cc4)nc32)[C@H](O)[C@@H]1O [APEC, 2-[4-(2-aminoethylaminocarbonylethyl)phenylethylamino]-5′-N-ethylcarboxamidoadenosine]	inactive	
OC[C@H]1O[C@@](CO)(O[C@H]2O[C@H](CO)[C@@H](O)[C@H](O)[C@H]2O)[C@@H](O)[C@@H]1O [hyperosmolar sucrose, sucrose]		prevented agonist-induced internalization
